The record followed here is ChEMBL document CHEMBL1909046, “DrugMatrix in vitro pharmacology data”.

Some targets named below: Cytochrome P450 3A4 (Homo sapiens, UniProt P08684); Cytochrome P450 2C19 (Homo sapiens, UniProt P33261); Cytochrome P450 2C9 (Homo sapiens, UniProt P11712); Cytochrome P450 2D6 (Homo sapiens, UniProt P10635).
Assay [1] has as its target Sodium-dependent noradrenaline transporter (Homo sapiens, UniProt P23975). Kind of assay: DRUGMATRIX: Norepinephrine Transporter radioligand binding (ligand: [125I] RTI-55). The class given is cell membranes, MDCK, Membrane. Particulars: Not Active = under 50% inhibition at 10 µM; for Ki: read-out: Ki.
A short description of assay [2]: DRUGMATRIX: Glutamate, AMPA radioligand binding (ligand: [3H] AMPA). In kind it is cell membranes, Rattus norvegicus, Wistar, Cerebral cortex, Membrane. The following applies: Not Active = under 50% inhibition at 10 µM.
In another assay the target is T1, Cytochrome P450 1A2 (Homo sapiens, UniProt P05177). Note: in other assays of this panel Not Active means under 50% inhibition at 10 µM.
T1 sequence (P05177 whole entry): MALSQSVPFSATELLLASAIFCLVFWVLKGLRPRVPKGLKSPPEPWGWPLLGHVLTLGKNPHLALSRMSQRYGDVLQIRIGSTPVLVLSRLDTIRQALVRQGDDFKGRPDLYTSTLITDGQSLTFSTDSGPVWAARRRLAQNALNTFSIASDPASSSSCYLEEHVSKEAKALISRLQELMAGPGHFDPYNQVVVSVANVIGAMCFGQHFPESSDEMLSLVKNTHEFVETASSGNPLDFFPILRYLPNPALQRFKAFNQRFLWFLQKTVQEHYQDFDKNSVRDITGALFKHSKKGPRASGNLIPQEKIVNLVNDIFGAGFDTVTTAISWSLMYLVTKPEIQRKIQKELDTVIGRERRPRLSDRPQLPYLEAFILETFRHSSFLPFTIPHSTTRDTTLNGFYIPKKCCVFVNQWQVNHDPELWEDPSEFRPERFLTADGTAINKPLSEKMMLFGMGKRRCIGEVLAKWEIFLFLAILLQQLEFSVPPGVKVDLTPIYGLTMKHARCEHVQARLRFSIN

Assay [3] has as its target T2, Androgen receptor (Rattus norvegicus, UniProt P15207).
T2 sequence (P15207 whole entry): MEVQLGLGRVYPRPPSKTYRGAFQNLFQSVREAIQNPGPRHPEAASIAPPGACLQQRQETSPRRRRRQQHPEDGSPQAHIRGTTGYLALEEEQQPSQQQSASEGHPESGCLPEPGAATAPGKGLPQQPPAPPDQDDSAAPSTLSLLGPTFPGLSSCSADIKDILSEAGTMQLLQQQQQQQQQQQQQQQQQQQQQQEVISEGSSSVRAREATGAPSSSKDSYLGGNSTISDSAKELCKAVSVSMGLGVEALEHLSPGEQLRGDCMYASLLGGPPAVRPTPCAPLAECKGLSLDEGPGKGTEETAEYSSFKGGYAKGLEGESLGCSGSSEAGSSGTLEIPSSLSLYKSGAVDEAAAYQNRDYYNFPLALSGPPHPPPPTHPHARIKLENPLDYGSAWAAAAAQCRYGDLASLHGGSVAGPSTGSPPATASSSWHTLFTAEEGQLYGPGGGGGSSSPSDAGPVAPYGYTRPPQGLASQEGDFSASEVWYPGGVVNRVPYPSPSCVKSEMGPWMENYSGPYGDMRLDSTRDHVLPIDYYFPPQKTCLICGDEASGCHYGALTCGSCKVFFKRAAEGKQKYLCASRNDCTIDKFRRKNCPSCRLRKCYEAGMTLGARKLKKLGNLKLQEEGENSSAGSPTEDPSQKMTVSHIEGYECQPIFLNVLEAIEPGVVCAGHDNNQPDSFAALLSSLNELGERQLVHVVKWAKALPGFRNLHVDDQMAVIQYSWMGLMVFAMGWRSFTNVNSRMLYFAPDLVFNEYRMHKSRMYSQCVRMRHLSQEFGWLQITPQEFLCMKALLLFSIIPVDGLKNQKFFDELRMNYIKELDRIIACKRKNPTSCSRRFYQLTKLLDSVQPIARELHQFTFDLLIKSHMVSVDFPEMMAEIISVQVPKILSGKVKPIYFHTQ

For the next assay, the target named is T3, Glucocorticoid receptor (Homo sapiens, UniProt P04150). Note: in other assays of this panel Not Active means under 50% inhibition at 10 µM.
T3 sequence (P04150 whole entry): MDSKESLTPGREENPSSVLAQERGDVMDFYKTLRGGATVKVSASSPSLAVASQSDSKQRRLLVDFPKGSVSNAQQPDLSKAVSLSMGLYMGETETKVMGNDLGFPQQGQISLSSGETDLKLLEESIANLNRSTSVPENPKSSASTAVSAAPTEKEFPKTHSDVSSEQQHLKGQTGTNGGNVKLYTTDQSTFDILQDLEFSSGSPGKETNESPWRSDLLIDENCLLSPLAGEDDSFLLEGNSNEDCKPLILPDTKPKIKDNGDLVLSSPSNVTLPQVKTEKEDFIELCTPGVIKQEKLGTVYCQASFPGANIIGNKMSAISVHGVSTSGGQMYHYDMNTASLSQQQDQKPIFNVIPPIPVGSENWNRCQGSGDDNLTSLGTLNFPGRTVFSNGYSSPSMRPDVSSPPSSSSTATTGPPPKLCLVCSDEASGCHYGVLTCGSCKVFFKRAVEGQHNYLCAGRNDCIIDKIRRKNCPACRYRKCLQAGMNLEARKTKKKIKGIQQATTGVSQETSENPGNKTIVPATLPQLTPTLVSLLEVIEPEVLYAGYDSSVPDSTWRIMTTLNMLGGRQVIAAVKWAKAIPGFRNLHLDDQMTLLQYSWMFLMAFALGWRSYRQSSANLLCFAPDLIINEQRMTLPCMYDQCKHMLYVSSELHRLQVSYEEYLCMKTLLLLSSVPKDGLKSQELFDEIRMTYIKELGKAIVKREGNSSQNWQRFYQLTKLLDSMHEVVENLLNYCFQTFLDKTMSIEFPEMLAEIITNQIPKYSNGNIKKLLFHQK
Kind of assay: biochemical.

The target of assay [4] is T2, Androgen receptor. The source holds these as a separate data set.

Sodium-dependent noradrenaline transporter, sequence (P23975 whole entry): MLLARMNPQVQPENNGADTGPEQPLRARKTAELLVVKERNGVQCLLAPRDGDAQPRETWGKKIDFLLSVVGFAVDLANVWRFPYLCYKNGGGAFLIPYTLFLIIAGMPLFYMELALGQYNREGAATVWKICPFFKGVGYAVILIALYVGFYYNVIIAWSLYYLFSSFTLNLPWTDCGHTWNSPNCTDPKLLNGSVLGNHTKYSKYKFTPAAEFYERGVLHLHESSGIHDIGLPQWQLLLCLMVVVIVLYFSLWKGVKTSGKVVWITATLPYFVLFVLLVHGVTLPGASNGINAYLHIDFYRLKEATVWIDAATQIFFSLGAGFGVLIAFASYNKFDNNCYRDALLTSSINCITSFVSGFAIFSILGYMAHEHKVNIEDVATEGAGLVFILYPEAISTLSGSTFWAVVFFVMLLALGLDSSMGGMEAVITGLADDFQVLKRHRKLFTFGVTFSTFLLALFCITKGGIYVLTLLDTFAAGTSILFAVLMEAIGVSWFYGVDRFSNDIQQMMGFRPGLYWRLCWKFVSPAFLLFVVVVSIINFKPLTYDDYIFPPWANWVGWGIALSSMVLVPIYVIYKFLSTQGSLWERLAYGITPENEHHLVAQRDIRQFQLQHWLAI
Cytochrome P450 2C9, sequence (P11712 whole entry): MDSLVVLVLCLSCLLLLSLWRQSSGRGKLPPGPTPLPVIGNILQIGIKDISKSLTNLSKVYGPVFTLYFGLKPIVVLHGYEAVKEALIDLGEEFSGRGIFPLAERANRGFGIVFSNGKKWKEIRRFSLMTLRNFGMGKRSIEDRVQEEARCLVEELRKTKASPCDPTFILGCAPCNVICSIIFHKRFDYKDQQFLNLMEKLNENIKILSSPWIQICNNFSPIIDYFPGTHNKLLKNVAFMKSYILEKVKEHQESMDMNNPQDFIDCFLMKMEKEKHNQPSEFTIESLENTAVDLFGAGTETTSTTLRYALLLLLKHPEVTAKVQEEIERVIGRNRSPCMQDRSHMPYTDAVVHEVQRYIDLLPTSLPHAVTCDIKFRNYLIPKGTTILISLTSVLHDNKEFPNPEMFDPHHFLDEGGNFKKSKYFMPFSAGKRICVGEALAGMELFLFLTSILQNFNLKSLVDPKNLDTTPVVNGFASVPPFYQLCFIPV
Cytochrome P450 2C19, sequence (P33261 whole entry): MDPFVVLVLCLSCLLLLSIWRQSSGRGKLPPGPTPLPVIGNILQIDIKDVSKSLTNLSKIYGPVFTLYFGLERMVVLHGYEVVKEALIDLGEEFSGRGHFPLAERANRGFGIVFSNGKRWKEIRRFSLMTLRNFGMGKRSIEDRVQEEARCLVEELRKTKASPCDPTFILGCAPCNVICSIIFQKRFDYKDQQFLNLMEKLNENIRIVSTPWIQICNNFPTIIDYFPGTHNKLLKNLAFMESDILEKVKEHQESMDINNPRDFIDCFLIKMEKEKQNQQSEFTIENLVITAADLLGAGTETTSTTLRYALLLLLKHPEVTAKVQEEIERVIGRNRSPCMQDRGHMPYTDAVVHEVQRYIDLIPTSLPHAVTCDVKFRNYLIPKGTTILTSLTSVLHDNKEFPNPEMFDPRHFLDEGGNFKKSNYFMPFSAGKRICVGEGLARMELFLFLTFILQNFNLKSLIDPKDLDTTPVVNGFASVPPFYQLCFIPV
Cytochrome P450 2D6, sequence (P10635 whole entry): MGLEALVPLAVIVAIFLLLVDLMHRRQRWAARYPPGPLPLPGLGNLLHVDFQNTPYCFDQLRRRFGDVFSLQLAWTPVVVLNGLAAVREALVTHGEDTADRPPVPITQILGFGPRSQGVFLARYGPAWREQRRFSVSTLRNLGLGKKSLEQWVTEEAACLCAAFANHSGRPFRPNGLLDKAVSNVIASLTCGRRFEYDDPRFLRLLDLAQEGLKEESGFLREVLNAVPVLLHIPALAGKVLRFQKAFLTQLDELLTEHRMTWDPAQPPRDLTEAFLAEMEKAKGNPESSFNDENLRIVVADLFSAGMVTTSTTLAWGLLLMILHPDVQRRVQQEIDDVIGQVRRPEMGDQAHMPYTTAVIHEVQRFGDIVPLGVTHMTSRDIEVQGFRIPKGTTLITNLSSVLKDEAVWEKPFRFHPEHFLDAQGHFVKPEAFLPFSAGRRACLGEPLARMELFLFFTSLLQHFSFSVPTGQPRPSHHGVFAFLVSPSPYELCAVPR
Cytochrome P450 3A4, sequence (P08684 whole entry): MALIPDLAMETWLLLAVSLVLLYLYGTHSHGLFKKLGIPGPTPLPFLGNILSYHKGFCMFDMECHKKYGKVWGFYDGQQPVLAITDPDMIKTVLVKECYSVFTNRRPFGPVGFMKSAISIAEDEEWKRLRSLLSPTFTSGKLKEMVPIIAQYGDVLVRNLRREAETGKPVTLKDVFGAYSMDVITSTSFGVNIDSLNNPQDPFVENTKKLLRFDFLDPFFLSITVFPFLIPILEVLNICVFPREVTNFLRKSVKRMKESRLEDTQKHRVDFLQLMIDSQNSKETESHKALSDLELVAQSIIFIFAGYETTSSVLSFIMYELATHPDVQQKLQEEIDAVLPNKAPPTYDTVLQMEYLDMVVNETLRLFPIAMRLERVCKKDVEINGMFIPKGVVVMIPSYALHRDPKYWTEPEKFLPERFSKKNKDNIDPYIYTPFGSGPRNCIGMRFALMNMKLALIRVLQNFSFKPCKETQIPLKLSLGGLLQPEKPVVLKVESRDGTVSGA

On to `c1ccc2c(c1)c1cccc3ccc4cccc2c4c31` [BENZO[E]PYRENE], for which the IC50 result is “Not Active” in assay [1] (mdck), “Not Active” in assay [2], 100 nM on Cytochrome P450 1A2 and “Not Active” at Androgen receptor [3]. For the same compound, the Ki entry in assay [2] was “Not Active”.

As to `C[C@]12CCC(=O)C=C1CC[C@@H]1[C@@H]2CC[C@@]2(C)[C@H]1CC[C@]2(C)O` [METHYLTESTOSTERONE], the values for the half-inhibitory concentration (IC50) result (in assay [1] (mdck); in [2]; against Glucocorticoid receptor) were “Not Active”, “Not Active” and 1840 nM, respectively. Further, the Ki result in [2] is “Not Active”; on Glucocorticoid receptor it was 838 nM.

Regarding `C[C@]12CC[C@@H]3c4ccc(O)cc4CC[C@H]3[C@@H]1CCC2=O` [ESTRONE], the results for the IC50 result (in [1] (mdck); in assay [2]; on Androgen receptor [4]) were “Not Active”, “Not Active” and 11600 nM, respectively. In addition, the Ki result in assay [2] was “Not Active”; on Androgen receptor [4], 7740 nM.

In the case of `CC(C)[C@H]1C(=O)N2CCC[C@H]2[C@]2(O)O[C@](NC(=O)[C@@H]3C=C4c5cccc6[nH]cc(c56)C[C@H]4N(C)C3)(C(C)C)C(=O)N12` [ERGOCORNINE], the half-maximal inhibitory concentration (IC50) result in assay [1] (mdck) is “Not Active”; in assay [2], “Not Active”; on Cytochrome P450 3A4, 500 nM; against Androgen receptor [3] it was “Not Active”. Also, the inhibition constant (Ki) entry in assay [2] is “Not Active”.

Regarding `CC(C)[C@@]1(NC(=O)[C@@H]2C[C@@H]3c4cccc5[nH]cc(c45)C[C@H]3N(C)C2)O[C@@]2(O)[C@@H]3CCCN3C(=O)[C@H](Cc3ccccc3)N2C1=O.CS(=O)(=O)O` [DIHYDROERGOCRISTINE MESYLATE], the concentration for half-maximal inhibition (IC50) entry in [1] (mdck) is “Not Active”; in assay [2] it was “Not Active”; against Cytochrome P450 2C19, 3000 nM; on Cytochrome P450 2C9, 3000 nM. The Ki entry in [2] was “Not Active”.

In the case of `Cc1cc(C(C#N)c2ccc(Cl)cc2)c(Cl)cc1NC(=O)c1cc(I)cc(I)c1O` (stereo not drawn) [CLOSANTEL], the IC50 result was “Not Active” in assay [1] (mdck), “Not Active” in assay [2] and 2000 nM on Cytochrome P450 2C9. The Ki entry in assay [2] is listed as “Not Active”.

With `Cc1ccc2cc3c(ccc4ccccc43)c3c2c1CC3` [3-METHYLCHOLANTHRENE], the figures for the IC50 (in assay [1] (read-out: IC50); in [2]; on Cytochrome P450 1A2) were 29700 nM, “Not Active” and 300 nM, respectively. For the same compound, the Ki in [1] was 29400 nM; in [2] it was “Not Active”.

On to `CC(NC(C)(C)C)C(=O)c1cccc(Cl)c1` (stereo not drawn) [BUPROPION], for which the IC50 entry in assay [1] (mdck) is “Not Active”; in [2], “Not Active”; on Cytochrome P450 2C19, 2000 nM. Further, the Ki result in assay [2] was “Not Active”.

With `CCCCc1nc(Cl)c(CO)n1Cc1ccc(-c2ccccc2-c2nnn[nH]2)cc1` [LOSARTAN], the IC50 entry in [1] (mdck) was “Not Active”; in assay [2] it was “Not Active”; on Cytochrome P450 2C9, 2880 nM. In addition, the inhibition constant (Ki) entry in assay [2] is given as “Not Active”.

`Cc1ccc(-c2cc(C(F)(F)F)nn2-c2ccc(S(N)(=O)=O)cc2)cc1` [CELECOXIB]: the 50% inhibitory concentration (IC50) in assay [1] (read-out: IC50) was 7310 nM; in assay [2] it was “Not Active”; against Cytochrome P450 2D6 it was 1000 nM; against Androgen receptor [3] it was “Not Active”. In addition, the values for the Ki in assay [1] and in assay [2] were 7250 nM and “Not Active”, respectively.

The IC50 is the midpoint of a concentration-inhibition curve. For orientation: Ki means a measure of affinity in units of concentration, obtained from inhibition or displacement.
